{"source": "patent US7906545B2", "about": "“Prodrugs of CC-1065 analogs” (priority 2002, dated 2011)", "key": {"[1]": {"conditions": "cited from earlier work"}, "mice": {"test_system": "mice", "conditions": "single intravenous dose of 12.5 μg/kg; cited from earlier work"}, "[2]": {"conditions": "vs doxorubicin, methotrexate and vincristine; cited from earlier work"}, "[3]": {"conditions": "phenyl carbamate prodrug of adozelesin; cited from earlier work"}, "[4]": {"assay": "stability in aqueous solutions", "type": "physicochemical"}, "carboxyl esterase": {"test_system": "carboxyl esterase", "assay": "conversion of carbamate prodrug into parent drug by incubation in serum, plasma or with carboxyl esterase", "type": "in vitro ADME", "conditions": "plasma or with an enzyme such as carboxyl esterase", "from_the_text": "Thus, piperazino carbamate and 4-piperidino-piperidino carbamate protecting groups are enzyme-cleavable by enzymes such as carboxyl esterase, which occurs in serum and plasma. Phosphate protecting groups are cleavable by phosphatase enzymes such as alkaline phosphatase."}, "[5]": {"conditions": "as compared with DC1"}, "alkaline phosphatase": {"test_system": "alkaline phosphatase", "conditions": "incubation with alkaline phosphatase", "experimental": "Cells to be evaluated can be exposed to the compounds for 24 hours and the surviving fractions of cells measured in direct assays by known methods."}, "[6]": {"test_system": "endogenous alkaline phosphatase", "conditions": "presumably hydrolysis by endogenous alkaline phosphatase; cited from earlier work"}}, "data": [{"smiles": "Cc1c[nH]c2c1[C@@]13C[C@@H]1CN(C(=O)c1cc4cc(NC(=O)c5cc6ccccc6o5)ccc4[nH]1)C3=CC2=O", "note": "[Adozelesin]", "values": [{"measurement": "systemic toxicity in clinical evaluation", "setting": "[1]", "value": "high systemic toxicity"}, {"measurement": "therapeutic effects in clinical evaluation", "setting": "[1]", "value": "poor therapeutic effects"}]}, {"smiles": "COc1c(O)c2c(c3cc(C(=O)N4CCc5c4c(O)c(OC)c4[nH]c(C(=O)N6CC7CC78C6=CC(=O)c6[nH]cc(C)c68)cc54)[nH]c13)CCN2C(N)=O", "note": "(centres unmarked) [CC-1065]", "values": [{"measurement": "delayed toxicity in mice", "setting": "mice", "value": "delayed hepatotoxicity leading to mortality on day 50"}, {"measurement": "potency in vitro relative to commonly used anti-cancer drugs", "setting": "[2]", "value": "about 1000 fold"}]}, {"smiles": "CCN(CC)c1ccc2cc(C(=O)Nc3ccc4[nH]c(C(=O)N5C[C@@H](CCl)c6c5cc(OC(=O)Nc5ccccc5)c5[nH]cc(C)c65)cc4c3)oc2c1", "note": "[Carzelesin]", "values": [{"measurement": "systemic toxicity in clinical evaluation", "setting": "[1]", "value": "high systemic toxicity"}, {"measurement": "therapeutic effects in clinical evaluation", "setting": "[1]", "value": "poor therapeutic effects"}, {"measurement": "lability of prodrug", "setting": "[3]", "value": "too labile for therapeutic use"}]}, {"smiles": "CN1CCN(C(=O)Oc2cc3c(c4ccccc24)[C@H](CCl)CN3C(=O)c2cc3cc(NC(=O)c4cc5cc(NC(=O)CCS)ccc5[nH]4)ccc3[nH]2)CC1", "note": "[DC2]", "values": [{"measurement": "stability in aqueous solutions", "setting": "[4]", "value": "extremely stable"}, {"measurement": "conversion into the parent drug DC1", "setting": "carboxyl esterase", "value": "can be converted into the parent drug DC1"}, {"measurement": "water solubility", "setting": "[5]", "value": "enhanced water solubility"}]}, {"smiles": "O=C(CCS)Nc1ccc2[nH]c(C(=O)Nc3ccc4[nH]c(C(=O)N5C[C@@H](CCl)c6c5cc(OC(=O)N5CCC(N7CCCCC7)CC5)c5ccccc65)cc4c3)cc2c1", "note": "[DC3]", "values": [{"measurement": "stability in aqueous solutions", "setting": "[4]", "value": "extremely stable"}, {"measurement": "conversion into the parent drug DC1", "setting": "carboxyl esterase", "value": "can be converted into the parent drug DC1"}, {"measurement": "water solubility", "setting": "[5]", "value": "enhanced water solubility"}]}, {"smiles": "O=C(CCS)Nc1ccc2[nH]c(C(=O)Nc3ccc4[nH]c(C(=O)N5C[C@@H](CCl)c6c5cc(OP(=O)(O)O)c5ccccc65)cc4c3)cc2c1", "note": "[DC4]", "values": [{"measurement": "stability in aqueous solutions", "setting": "[4]", "value": "extremely stable"}, {"measurement": "water solubility", "setting": "[5]", "value": "soluble"}, {"measurement": "conversion into the parent drug DC1", "setting": "alkaline phosphatase", "value": "converts it into the parent drug DC1"}]}, {"smiles": "COc1cc([C@@H]2c3cc4c(cc3[C@@H](O[C@@H]3O[C@@H]5CO[C@@H](C)O[C@H]5[C@H](O)[C@H]3O)[C@H]3COC(=O)[C@H]23)OCO4)cc(OC)c1OP(=O)(O)O", "note": "[etoposide phosphate]", "values": [{"measurement": "conversion in vivo into active drug", "setting": "[6]", "value": "rapidly converted into active drug"}]}]}
